These are literature values, as cited in patent publication US6660286B1, “Emulsion vehicle for poorly soluble drugs” (Sonus Pharmaceuticals, Inc., priority 1997, dated 2003).

Read-outs that look alike come from different tables or passages of the source.

Consider `CC(=O)O[C@H]1C(=O)[C@@]2(C)[C@H]([C@H](OC(=O)c3ccccc3)[C@]3(O)C[C@H](OC(=O)[C@H](O)[C@@H](NC(=O)c4ccccc4)c4ccccc4)C(C)=C1C3(C)C)[C@]1(OC(C)=O)CO[C@@H]1C[C@@H]2O` [paclitaxel], for which the solubility of paclitaxel is ≤ 300 µg/mL (30% PVP in water); 30 µg/mL (35% PEG 400 in water); 200 to 175000 µg/mL (admixtures of PEG 400 and water containing 50-100% PEG 400).
